Measured values reported in EP4782453A1 (Beyang Therapeutics Co., Ltd., priority 2023, dated 2025).

Test system: MV-4-11 (carrying MLL-AF4)
Experiment: Inhibition of proliferation of human tumor cells (Alamar Blue, 7 days), MV-4-11
Format: cell-based
Conditions: Homo sapiens, MV4-11, 168 h, MV-4-11 cells (carrying MLL-AF4), method calls the value GI50
Procedure, shortened: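 GI50 from Alamar Blue fluorescence after 7-day compound exposure, duplicate wells, using Day-0 and Day-7 0.1% DMSO wells as low and high controls. MV-4-11 in IMDM/10% FBS and MOLM-13 in RPMI-1640/20% FBS at 4,000 cells/well; KG-1a in IMDM/20% FBS at 3,000 cells/well.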

IC50 [nM]	Structure (SMILES)
1.8	CO[C@@H]1CCN(CCC[C@H](C(C)C)N2CC(c3cc(-c4ccc(F)cc4C(=O)N4CCOC[C@H]4C)c4c(F)nc(C)n4c3)C2)C1 [Example 202]
7.4	CC(=O)N1CCC(CN2CC(c3cc(-c4ccc(F)cc4C(=O)N4[C@H](C)COC[C@H]4C)c4c(F)nc(C)n4c3)C2)CC1 [Example 205]
6.6	Cc1nc(F)c2c(-c3ccc(F)cc3C(=O)N3[C@H](C)COC[C@H]3C)cc(C3CN(CC4CCOCC4)C3)cn12 [Example 208]
9.6	CCNC(=O)N1CCC(CN2CC(c3cc(-c4ccc(F)cc4C(=O)N4CCOC[C@H]4C)c4c(F)nc(C)n4c3)C2)CC1 [Example 261]
4.7	CNC(=O)N1CCC([C@H](C)N2CC(c3cc(-c4ccc(F)cc4C(=O)N4CCOC[C@H]4C)c4c(F)nc(C)n4c3)C2)CC1 [Example 264-2]
2.4	Cc1nc(F)c2c(-c3ccc(F)cc3C(=O)N3CCOCC3C)cc(C3CN(C(CCCN4CCCC(O)C4)C(C)C)C3)cn12 (stereo not shown) [Example 292]
3.4	CO[C@@H]1CCCN(CCC[C@H](C(C)C)N2CC(c3cc(-c4ccc(F)cc4C(=O)N4CCOC[C@H]4C)c4c(F)nc(C)n4c3)C2)C1 [Example 305]
2.8	CO[C@H]1CCCN(CCC[C@H](C(C)C)N2CC(c3cc(-c4ccc(F)cc4C(=O)N4CCOC[C@H]4C)c4c(F)nc(C)n4c3)C2)C1 [Example 306]

More lines, now with the values behind:

Structure (SMILES)	IC50 [nM]
CCN(C(=O)c1cc(F)ccc1-c1cc(C2(F)CN(C(=O)C3NC4CCC3CC4)C2)cn2c(C)ncc12)C(C)C [Example 75, N-ethyl-5-fluoro-2-(6-{3-fluoro-1-[(1R,3S,4S)-2-azabicyclo[2.2.2]octan-3-carbonyl]azacyclobutan-3-yl}-3-methylimidazo[1,5-a]pyridin-8-yl)-N-(isopropyl) benzamide]	25
CCN(C(=O)c1cc(F)ccc1-c1cc(C2CCN(Cc3ccc(-c4cc(OC)c(OC)nn4)cc3)C2)cn2c(C)ncc12)C(C)C (stereo not shown) [Example 83]	5.5
COCCN(C)CCCC(C(C)C)N1CC(c2cc(-c3ccc(F)cc3C(=O)N3CCOCC3C)c3cnn(C)c3c2)C1 (stereo not shown) [Example 185]	26
COCCN(C)CCC[C@H](C(C)C)N1CC(c2cc(-c3ccc(F)cc3C(=O)N3[C@H](C)COC[C@H]3C)c3cnn(C)c3c2)C1 [Example 186-2, [(4R)-4-[3-(4-{2-[(3R,5R)-3,5-dimethylmorpholin-4-carbonyl]-4-fluorophenyl}-1-methyl-1H-indazol-6-yl)azacyclobutan-1-yl]-5-methylhexyl](2-methoxyethyl)methylamine]	4.3
CCS(=O)(=O)N[C@H]1CC[C@H](CN2CC(c3cc(-c4ccc(F)cc4C(=O)N4[C@H](C)COC[C@H]4C)c4c(F)nc(C)n4c3)C2)CC1 [Example 197, N-[(1r,4r)-4-{[3-(8-{2-[(3R,5R)-3,5-dimethylmorpholin-4-carbonyl]-4-fluorophenyl}-1-fluoro-3-methylimidazo[1,5-a]pyridin-6-yl)azacyclobutan-1-yl]methyl}cyclohexyl]ethan-1-sulfonamide]	4
